According to US20050266420A1, “Multigene predictors of response to chemotherapy” (Board of Regents, The University of Texas System, priority 2004, published 2005):
Like-named read-outs stand apart in the source and are kept apart here.

How the values were obtained:
ZR75.1 cells = experiment: Fluorescent drug uptake by FACS in siRNA-transfected cells; assay type: cell-based, human; settings: 16 μM epirubicin, versus lamin knocked-down cells
Protocol: In vitro apoptosis and cell growth assays. Twenty-four hours after siRNA transfection, the medium was changed and cells were treated with various concentrations of paclitaxel and epirubicin. Proliferation rates were determined with CellTiter-Glo® Luminescent Cell Viability Assay, (Promega) after 48 hours of drug exposure according to the manufacturer's instructions. Chemosensitivity was determined from three separate experiments. Growth curves were generated with GraphPad Prism 4.01 (GraphPad Software, San Diego, Calif.). […] Data were recorded by the FACScan as arbitrary units. The amount of fluorescence per cell (arbitrary fluorescence units) was taken as the measure of drug uptake. […] Fluorescence paclitaxel uptake was also observed using an inverted fluorescent microscope.
Tau protein reduces paclitaxel binding to tubulin and interferes with the paclitaxel induced stabilization in vitro. […] To estimate paclitaxel binding to tubulin in the presence or absence of Tau protein, the uptake of fluorescent paclitaxel in Tau siRNA-treated (Tau knock down) cells and lamin siRNA-treated control cells were measured. Forty-four hours after siRNA transfection, cells were exposed to 1 μM Oregon green-paclitaxel for 20 to 80 min and then analyzed by FACS. The amount of fluorescent paclitaxel in the cells can be assessed by plotting fluorescence intensity in the X-axis and cell count on the Y-axis. […]

[1] = system: ZR75.1 breast cancer cells; experiment: ATP cell viability assay (CellTiter-Glo) after siRNA transfection; assay type: cell-based, human; settings: 48 h drug exposure; for Effect of Tau down-regulation on sensitivity to the drug: ZR75.1 cells, Tau siRNA; for IC50: Homo sapiens, ZR-75-1, 48 h, read-out: IC50 concentration of paclitaxel
Description: Small interfering RNA studies. Two siRNA oligonucleotides directed against microtubule associated protein Tau (genbank accession number NM_016835.1) were ordered from Qiagen. Breast cancer cell lines were screened for Tau protein expression by Western blot analysis using a monoclonal anti-Tau antibody (#13-1400: clone T14, Zymed, CA). ZR75.1 cells were selected for siRNA studies and were transfected with a control siRNA (directed against lamin) or 2 distinct anti-Tau siRNA (5′-[…]-3′ (SEQ ID NO:194) and 5′-[…]-3′) (SEQ ID NO:195) constructs. Five hundred nanograms of siRNA was transfected using 1.5 μl RNAiFect (Qiagen) onto 1-3×10^4 cells in 96-well plates or 5 μg of siRNA was transfected using 15 μl RNAiFect (Qiagen) onto 1.5-4×10^5 cells in 6-well plates following the manufactures instructions.
In vitro apoptosis and cell growth assays. Twenty-four hours after siRNA transfection, the medium was changed and cells were treated with various concentrations of paclitaxel and epirubicin. Proliferation rates were determined with CellTiter-Glo® Luminescent Cell Viability Assay, (Promega) after 48 hours of drug exposure according to the manufacturer's instructions. Chemosensitivity was determined from three separate experiments. Growth curves were generated with GraphPad Prism 4.01 (GraphPad Software, San Diego, Calif.). The effect of Tau expression on drug uptake was assayed using a fluorescent-conjugated paclitaxel (Oregon Green 488 paclitaxel, Molecular probes, Eugene, Oreg.) or spontaneously fluorescent epirubicin (Kimichi-Sarfaty et al., 2002; Harris et al., 2003). Forty-eight hours after siRNA transfection, 3×10^5 cells were trypsinized and resuspended in 1 ml of regular medium containing 1 μM of fluorescent paclitaxel or 16 μM of epirubicin and incubated at 37° C. for 20 to 80 min. The pellet was resuspended in 400 μl of phosphate-buffered saline before FACS analysis (Kimichi-Sarfaty et al., 2002) using CellQuest software (BD Biosciences, San Jose, Calif.). Data were recorded by the FACScan as arbitrary units. The amount of fluorescence per cell (arbitrary fluorescence units) was taken as the measure of drug uptake. […] Fluorescence paclitaxel uptake was also observed using an inverted fluorescent microscope.
Down regulation of Tau expression in breast cancer cells increases sensitivity to paclitaxel in vitro. […] The inventors assessed Tau protein expression in breast cancer cell lines with Western blot using an anti-Tau monoclonal antibody that recognizes Tau irrespectively of phosphorylation status. […] Twenty-four hours after siRNA transfection, cells were exposed to various concentrations of paclitaxel or epirubicin and cell viability was assessed after 48 h of drug exposure using an ATP cell viability assay. […]

Bovine brain tubulin = experiment: Tubulin polymerization assay (OD340); assay type: biochemical; settings: tubulin 20 μM, 37° C.; 20 μM paclitaxel or 15 μM Tau
Protocol: (§1) Tubulin polymerization assays. Bovine brain tubulin (2 mg/ml) polymerization assays were performed in 100-μl volumes at 37° C. using the Tubulin Polymerization Assay Kit (Cytoskeleton, Inc., Denver, Colo.) and following the manufacturer recommendations. Purified Tau protein was purchased from Cytoskeleton (ref #TA01). Fluorescent Bodipy-paclitaxel was purchased from Molecular probes (Bodipy 564/570, Molecular probes, Eugene, Oreg.). OD340 was measured every 30 seconds for 30-60 min. The plots show the change in turbidity after correcting the data for the baseline absorbance.
Microtubules are formed in vitro by non-covalent polymerization of tubulin dimers (Desai et al., 1997; Hong et al., 1998). Microtubule associated proteins, GTP and paclitaxel increase microtubule polymerization rates which can be measured by observing an increase in absorbance at 340 nm (Lu and Wood, 1993; Rao et al., 1999). The inventors hypothesized that Tau may reduce pharmacological tubulin polymerization induced by paclitaxel. The inventors performed a kinetic spectrophotometric tubulin polymerization assay in which Tau and paclitaxel were added together to the tubulin mixture. […] Next, tubulin was pre-incubated with Tau before adding paclitaxel which approximates a more physiological sequence of drug exposure. […]

tubulin = experiment: Competition for fluorescent bodipy-paclitaxel binding to tubulin; set-up: species or system bovine; settings: 30 min pre-incubation; Tau 15 μM or unlabelled paclitaxel 20 μM; fluorescent paclitaxel 5 μM
Protocol: as §1
To examine if paclitaxel binding to tubulin is affected by Tau expression, the inventors used fluorescent bodipy-paclitaxel. When fluorescent paclitaxel binds to microtubules it results in enhanced fluorescence. The inventors used this characteristic to assess the competition between Tau and paclitaxel in vitro. Fluorescent paclitaxel (5 μM) was added to a tubulin solution after 30 minutes pre-incubation with Tau (15 μM) or regular (non-fluorescent) paclitaxel (20 μM), or reaction buffer alone and fluorescence was measured 30 minutes later. […] In the control wells, the addition of fluorescent paclitaxel induced polymerization and after 30 minutes, fluorescence emission was high.

Competition with fluorescent paclitaxel for binding to microtubules (tubulin) | IC50 ([1]; ZR75.1 cells with Tau siRNA knock down) | IC50 ([1]; ZR75.1 control cells (lamin siRNA or no siRNA)) | SMILES | Fluorescence uptake in Tau knocked-down cells (ZR75.1 cells) | Effect of Tau down-regulation on sensitivity to the drug [1] | Tubulin polymerization (Bovine brain tubulin)
– | – | – | COc1cccc2c1C(=O)c1c(O)c3c(c(O)c1C2=O)C[C@@](O)(C(=O)CO)C[C@@H]3O[C@H]1C[C@H](N)[C@@H](O)[C@H](C)O1 [epirubicin] | slightly decreased | did not result in increased sensitivity | –
very high | 100 nM | > 10000 nM | CC(=O)O[C@H]1C(=O)[C@@]2(C)[C@H]([C@H](OC(=O)c3ccccc3)[C@]3(O)C[C@H](OC(=O)[C@H](O)[C@@H](NC(=O)c4ccccc4)c4ccccc4)C(C)=C1C3(C)C)[C@]1(OC(C)=O)CO[C@@H]1C[C@@H]2O [paclitaxel] | – | significantly increased the sensitivity | induced tubulin polymerization
